Here are results for four molecules from the kinase profiling compilation of Christmann-Franck et al. (2016).

Some targets named below: MAST1 (human) (UniProt Q9Y2H9); LRRK2 (human) (UniProt Q5S007); MAP3K2 (human) (UniProt Q9Y2U5); PI4KB (human) (UniProt Q9UBF8); MARK2 (human) (UniProt Q7KZI7); CASK (human) (UniProt O14936); ROCK1 (human) (UniProt Q13464); ERBB3 (human) (UniProt P21860); CDKL5 (human) (UniProt O76039); IRAK1 (human) (UniProt P51617); MAP3K15 (human) (UniProt Q6ZN16); MTOR (human) (UniProt P42345); HIPK4 (human) (UniProt Q8NE63); SBK1 (human) (UniProt Q52WX2); CDK4 CCND3 (human) (UniProt P11802+P30281); CDK4 CCND1 (human) (UniProt P11802+P24385); HUNK (human) (UniProt P57058); ERN1 (human) (UniProt O75460); RPS6KB1 (human) (UniProt P23443); STK32A (human) (UniProt Q8WU08); MAP2K5 (human) (UniProt Q13163); MAP2K7 (human) (UniProt O14733); NEK3 (human) (UniProt P51956); PRPF4B (human) (UniProt Q13523); PRKG2 (human) (UniProt Q13237); DYRK1A (human) (UniProt Q13627); CSNK1A1L (human) (UniProt Q8N752); CDKL1 (human) (UniProt Q00532); EIF2AK1 (human) (UniProt Q9BQI3); GRK4 (human) (UniProt P32298); ABL1 (human) (UniProt P00519).

Holding throughout (assay): KINOMEscan competition binding
What all share (details): compound 10.0 µM

In test [1] the test system is KIT (human), P10721 [L576P].
Test [2] relates to KIT (human), P10721 [D816H].
Test [3] concerns PIK3CA (human), P42336 [H1047Y].
Test [4] concerns PIK3CA (human), P42336 [C420R].
Test [5] has as its system PIK3CA (human), P42336 [H1047L].
Test [6] deals with PIK3CA (human), P42336 [Q546K].
Test [7] deals with PIK3CA (human), P42336 [M1043I].
For a further test, the system named is CPK1 (P.falciparum).
The test system of test [8] is EGFR (human), P00533 [T790M].
Test [9] concerns ABL1 (human), P00519 [Q252H].
The test system of test [10] is ABL1 (human), P00519 [F317I].

Chain of PRKG2 (human) (Q13237 whole entry, looked up): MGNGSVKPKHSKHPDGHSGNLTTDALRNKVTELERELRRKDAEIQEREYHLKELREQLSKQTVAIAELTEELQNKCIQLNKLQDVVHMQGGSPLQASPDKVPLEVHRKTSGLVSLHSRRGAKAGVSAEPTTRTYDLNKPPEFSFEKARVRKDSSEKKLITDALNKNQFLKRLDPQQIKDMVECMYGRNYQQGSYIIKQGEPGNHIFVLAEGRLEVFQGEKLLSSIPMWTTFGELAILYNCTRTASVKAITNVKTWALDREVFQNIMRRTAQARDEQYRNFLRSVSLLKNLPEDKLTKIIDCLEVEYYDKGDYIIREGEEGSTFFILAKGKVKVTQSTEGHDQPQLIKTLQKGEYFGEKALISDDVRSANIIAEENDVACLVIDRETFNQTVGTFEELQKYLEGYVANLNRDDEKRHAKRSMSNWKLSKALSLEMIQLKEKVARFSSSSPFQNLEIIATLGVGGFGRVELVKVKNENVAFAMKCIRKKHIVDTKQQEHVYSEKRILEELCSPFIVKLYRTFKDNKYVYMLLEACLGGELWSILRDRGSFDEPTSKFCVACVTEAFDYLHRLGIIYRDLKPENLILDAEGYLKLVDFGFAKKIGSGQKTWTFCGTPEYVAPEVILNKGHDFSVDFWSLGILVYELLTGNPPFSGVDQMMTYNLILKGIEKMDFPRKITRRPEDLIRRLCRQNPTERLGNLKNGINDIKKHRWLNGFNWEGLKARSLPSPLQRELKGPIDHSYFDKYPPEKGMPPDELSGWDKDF
Chain of PIK3CA (human), P42336 [H1047Y] (P42336 whole entry H1047Y, looked up): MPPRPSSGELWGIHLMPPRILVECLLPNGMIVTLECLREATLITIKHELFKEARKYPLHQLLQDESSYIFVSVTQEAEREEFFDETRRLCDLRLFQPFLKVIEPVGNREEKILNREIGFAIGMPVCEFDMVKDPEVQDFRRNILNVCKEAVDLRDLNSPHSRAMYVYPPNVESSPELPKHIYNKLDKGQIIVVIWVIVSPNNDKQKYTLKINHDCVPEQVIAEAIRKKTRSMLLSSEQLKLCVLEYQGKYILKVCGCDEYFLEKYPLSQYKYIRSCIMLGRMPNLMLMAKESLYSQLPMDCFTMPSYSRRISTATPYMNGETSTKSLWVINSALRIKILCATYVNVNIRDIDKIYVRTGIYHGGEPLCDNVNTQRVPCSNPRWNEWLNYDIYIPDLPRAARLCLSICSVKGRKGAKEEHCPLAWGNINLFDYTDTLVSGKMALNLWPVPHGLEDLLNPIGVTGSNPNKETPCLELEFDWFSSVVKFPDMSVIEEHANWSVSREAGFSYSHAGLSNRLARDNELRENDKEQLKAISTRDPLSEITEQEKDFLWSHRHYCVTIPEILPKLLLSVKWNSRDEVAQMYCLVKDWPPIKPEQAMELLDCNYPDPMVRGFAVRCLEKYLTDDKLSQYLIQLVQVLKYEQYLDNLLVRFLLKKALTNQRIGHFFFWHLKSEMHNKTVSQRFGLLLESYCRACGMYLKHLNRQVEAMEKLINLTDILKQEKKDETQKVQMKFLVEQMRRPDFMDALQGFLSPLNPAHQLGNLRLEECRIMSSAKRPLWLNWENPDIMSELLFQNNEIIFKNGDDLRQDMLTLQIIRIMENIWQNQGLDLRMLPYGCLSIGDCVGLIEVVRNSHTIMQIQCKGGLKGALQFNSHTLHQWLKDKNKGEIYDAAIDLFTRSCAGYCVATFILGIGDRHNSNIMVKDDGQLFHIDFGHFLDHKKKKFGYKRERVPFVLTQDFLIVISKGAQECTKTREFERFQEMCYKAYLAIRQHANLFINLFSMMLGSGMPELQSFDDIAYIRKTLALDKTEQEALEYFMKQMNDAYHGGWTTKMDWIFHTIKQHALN
Chain of MAST1 (human) (Q9Y2H9 whole entry, looked up): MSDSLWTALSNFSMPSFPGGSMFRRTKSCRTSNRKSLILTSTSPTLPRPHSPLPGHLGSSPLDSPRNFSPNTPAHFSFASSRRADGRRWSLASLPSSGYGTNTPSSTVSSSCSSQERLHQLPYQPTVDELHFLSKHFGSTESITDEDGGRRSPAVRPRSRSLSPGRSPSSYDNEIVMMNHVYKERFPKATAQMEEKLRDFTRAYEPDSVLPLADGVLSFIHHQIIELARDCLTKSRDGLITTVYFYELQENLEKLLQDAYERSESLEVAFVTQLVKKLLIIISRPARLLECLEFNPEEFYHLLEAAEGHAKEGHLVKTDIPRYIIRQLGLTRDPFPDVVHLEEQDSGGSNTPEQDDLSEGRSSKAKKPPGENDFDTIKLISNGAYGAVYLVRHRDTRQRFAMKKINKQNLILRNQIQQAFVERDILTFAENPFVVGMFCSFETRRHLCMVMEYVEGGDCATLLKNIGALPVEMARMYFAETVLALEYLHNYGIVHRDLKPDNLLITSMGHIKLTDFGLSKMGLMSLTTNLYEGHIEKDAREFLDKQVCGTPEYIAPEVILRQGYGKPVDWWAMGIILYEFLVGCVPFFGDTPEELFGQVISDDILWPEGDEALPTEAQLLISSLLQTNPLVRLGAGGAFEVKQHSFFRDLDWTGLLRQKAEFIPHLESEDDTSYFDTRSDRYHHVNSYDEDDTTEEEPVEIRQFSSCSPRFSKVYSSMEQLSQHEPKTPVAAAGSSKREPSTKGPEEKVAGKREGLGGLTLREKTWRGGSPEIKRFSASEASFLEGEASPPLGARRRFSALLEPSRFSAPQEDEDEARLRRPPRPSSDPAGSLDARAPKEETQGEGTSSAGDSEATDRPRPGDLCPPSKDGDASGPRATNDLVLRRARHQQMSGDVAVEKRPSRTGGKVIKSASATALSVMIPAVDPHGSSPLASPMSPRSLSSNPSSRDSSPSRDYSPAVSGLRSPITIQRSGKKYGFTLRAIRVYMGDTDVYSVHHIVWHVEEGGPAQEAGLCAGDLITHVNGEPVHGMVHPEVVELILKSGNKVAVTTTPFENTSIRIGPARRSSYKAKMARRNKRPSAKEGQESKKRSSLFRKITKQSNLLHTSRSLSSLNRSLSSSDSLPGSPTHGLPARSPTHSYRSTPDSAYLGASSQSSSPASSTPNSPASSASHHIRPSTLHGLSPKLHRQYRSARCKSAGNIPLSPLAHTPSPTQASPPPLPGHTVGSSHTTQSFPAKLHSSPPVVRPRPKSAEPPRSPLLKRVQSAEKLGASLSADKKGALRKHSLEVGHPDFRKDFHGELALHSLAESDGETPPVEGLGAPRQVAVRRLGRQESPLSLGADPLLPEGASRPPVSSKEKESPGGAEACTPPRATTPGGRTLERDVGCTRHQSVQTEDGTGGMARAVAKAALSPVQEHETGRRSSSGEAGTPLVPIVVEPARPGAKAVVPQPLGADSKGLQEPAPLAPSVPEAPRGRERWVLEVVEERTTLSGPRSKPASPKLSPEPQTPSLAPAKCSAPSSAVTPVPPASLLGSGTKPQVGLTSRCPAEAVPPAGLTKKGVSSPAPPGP
Chain of CDK4 CCND3 (human) (P11802 whole entry, looked up): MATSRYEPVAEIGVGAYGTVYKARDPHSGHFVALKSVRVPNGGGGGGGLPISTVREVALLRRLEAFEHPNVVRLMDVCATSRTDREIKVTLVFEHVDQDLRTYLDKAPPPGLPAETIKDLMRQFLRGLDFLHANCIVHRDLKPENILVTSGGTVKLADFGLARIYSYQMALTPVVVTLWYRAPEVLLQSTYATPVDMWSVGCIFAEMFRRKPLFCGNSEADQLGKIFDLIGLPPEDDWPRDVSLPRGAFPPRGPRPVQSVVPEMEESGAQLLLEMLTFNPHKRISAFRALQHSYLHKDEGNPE
Chain of CDK4 CCND3 (human) (P30281 whole entry, looked up): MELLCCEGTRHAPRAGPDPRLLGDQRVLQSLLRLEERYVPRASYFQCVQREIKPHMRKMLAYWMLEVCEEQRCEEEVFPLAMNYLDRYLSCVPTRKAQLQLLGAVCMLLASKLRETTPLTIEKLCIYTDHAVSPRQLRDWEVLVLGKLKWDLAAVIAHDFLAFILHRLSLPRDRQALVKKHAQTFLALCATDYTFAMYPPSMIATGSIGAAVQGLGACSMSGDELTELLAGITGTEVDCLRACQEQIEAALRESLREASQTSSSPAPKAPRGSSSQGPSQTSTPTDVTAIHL
Chain of CDK4 CCND1 (human) (P11802 whole entry, looked up): as the sequence (P11802 whole entry, looked up) above
Chain of CDK4 CCND1 (human) (P24385 whole entry, looked up): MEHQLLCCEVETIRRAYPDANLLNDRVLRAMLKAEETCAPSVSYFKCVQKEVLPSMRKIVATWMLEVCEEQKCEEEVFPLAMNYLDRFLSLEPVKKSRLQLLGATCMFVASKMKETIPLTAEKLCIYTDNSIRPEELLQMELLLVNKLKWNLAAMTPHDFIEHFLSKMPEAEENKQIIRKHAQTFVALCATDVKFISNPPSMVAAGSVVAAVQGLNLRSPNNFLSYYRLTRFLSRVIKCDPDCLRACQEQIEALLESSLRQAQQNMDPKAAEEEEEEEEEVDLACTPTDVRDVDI
Chain of STK32A (human) (Q8WU08 whole entry, looked up): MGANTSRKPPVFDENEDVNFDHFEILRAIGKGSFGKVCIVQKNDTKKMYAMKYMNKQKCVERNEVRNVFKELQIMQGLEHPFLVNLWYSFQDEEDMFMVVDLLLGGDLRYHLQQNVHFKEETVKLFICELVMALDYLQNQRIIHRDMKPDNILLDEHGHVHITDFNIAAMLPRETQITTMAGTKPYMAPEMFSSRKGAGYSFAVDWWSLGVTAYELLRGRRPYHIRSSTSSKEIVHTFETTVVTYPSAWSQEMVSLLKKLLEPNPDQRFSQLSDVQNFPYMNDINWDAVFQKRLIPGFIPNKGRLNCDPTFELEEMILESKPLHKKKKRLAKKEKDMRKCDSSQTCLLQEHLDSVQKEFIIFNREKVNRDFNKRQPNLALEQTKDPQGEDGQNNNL

Consider `CCN1CCN(Cc2ccc(NC(=O)c3ccc(C)c(/C=C/c4cnc(Nc5cc(N6CCNCC6)nc(C)n5)cn4)c3)cc2C(F)(F)F)CC1`, for which the kinase still bound, per cent of control was 87% at MAST1 (human); 0.2% in test [1]; 63% at LRRK2 (human); 0.4% at MAP3K2 (human); 20% in test [2]; 63% at PI4KB (human). Besides, the kinase still bound, per cent of control was 100% at MARK2 (human); 72% on CASK (human); 68% in test [3]; 100% on ROCK1 (human); 80% in test [4]; 100% at ERBB3 (human). For the same molecule, the kinase still bound, per cent of control at CDKL5 (human) came to 13%; on IRAK1 (human), 50%; on MAP3K15 (human), 100%; on MTOR (human), 100%; in test [5], 97%; at HIPK4 (human), 15%. The kinase still bound, per cent of control at SBK1 (human) is 82%; at CDK4 CCND3 (human), 64%; on CDK4 CCND1 (human), 100%; on HUNK (human), 93%; at ERN1 (human) it was 71%; on RPS6KB1 (human) it was 6.2%. The kinase still bound, per cent of control was 100% in test [6]; 100% on STK32A (human); 0.1% on MAP2K5 (human); 30% on MAP2K7 (human); 73% in test [7]; 0.2% with CPK1 (P.falciparum). Moreover, the kinase still bound, per cent of control on NEK3 (human) turned out to be 59%; on PRPF4B (human) it was 85%; at PRKG2 (human), 88%; on DYRK1A (human), 44%; on CSNK1A1L (human), 99%; on CDKL1 (human) it was 61%. Also, the results for the kinase still bound, per cent of control (on EIF2AK1 (human); in test [8]; on GRK4 (human)) were 100%, 9.4% and 80%, respectively.
Take `COc1cc(N2CCC(N3CCN(C)CC3)CC2)ccc1Nc1ncc(Cl)c(Nc2ccccc2S(=O)(=O)C(C)C)n1`: the kinase still bound, per cent of control came to 7.3% on ABL1 (human), 2.2% in [9] and 0.45% in test [10].
As for `CCN1CCN(Cc2ccc(NC(=O)c3ccc(C)c(Oc4ccnc5[nH]ccc45)c3)cc2C(F)(F)F)CC1`, the kinase still bound, per cent of control worked out at 0.1% on ABL1 (human), 0.4% in [9] and 0.05% in test [10].
Consider `CCOc1cc(N2CCC(N3CCCCC3)CC2)ccc1Nc1nc(Nc2ccccc2S(=O)(=O)C(C)C)c2cn[nH]c2n1`, for which the kinase still bound, per cent of control was 46% on MAST1 (human); 67% in test [1]; 0.65% at LRRK2 (human); 28% at MAP3K2 (human); 73% in test [2]; 58% on PI4KB (human). The kinase still bound, per cent of control came out at 86% on MARK2 (human); 100% at CASK (human); 100% in test [3]; 4.8% at ROCK1 (human); 100% in test [4]; 55% on ERBB3 (human). The kinase still bound, per cent of control at CDKL5 (human) came out at 100%; at IRAK1 (human), 93%; on MAP3K15 (human), 77%; at MTOR (human), 86%; in test [5], 100%; at HIPK4 (human) it was 44%. The kinase still bound, per cent of control at SBK1 (human) worked out at 57%; at CDK4 CCND3 (human), 100%; on CDK4 CCND1 (human), 82%; at HUNK (human) it was 100%; at ERN1 (human), 92%; on RPS6KB1 (human), 100%. Besides, the kinase still bound, per cent of control in test [6] worked out at 100%; at STK32A (human) it was 32%; at MAP2K5 (human), 55%; on MAP2K7 (human) it was 78%; in test [7], 100%; in the test on CPK1 (P.falciparum), 44%. Moreover, the kinase still bound, per cent of control on NEK3 (human) came to 76%; at PRPF4B (human), 100%; on PRKG2 (human), 100%; at DYRK1A (human), 63%; on CSNK1A1L (human) it was 78%; at CDKL1 (human), 100%. In addition, the kinase still bound, per cent of control at EIF2AK1 (human) came out at 100%; in [8] it was 0.25%; on GRK4 (human) it was 92%.
